In patent US10603265B2, “Skin whitening peptide agents” (INSTITUT CURIE, priority 2014, dated 2020):
Several values for one entry are separate records, joined by “and”; a condition that tells them apart may be missing. Identical values can stand only once. Entries after “also recorded” stand apart in the source; their conditions may differ.

Legend:
[1] = test system: MNT-1 cells; assay: Melanin assay on MNT-1 cells; type: cell-based, human; conditions: MNT1 melanocytes, 3 days, 10 μM peptide, OD 492 nm, normalized to H2O control
Protocol: FIG. 4: MNT1 melanocytes were cultured 3 days with 10 μM of QK-5 peptide (SEQ ID NO: 16) or H2O as a control. Melanin estimation was performed as previously described (Delevoye et al., J Cell Biol. 2009 Oct. 19; 187(2):247-64), and normalized to the control. QK-5 peptide incubation decreased the intracellular melanin content about 40±0.02%. Data are presented as mean±standard deviation. *; p value (two tailed)<0.05.
The skin whitening activity of the peptide may further be determined by measuring the melanin content of melanocytic cells such as MNT-1 cells, incubated with the peptide. For example, the assay may be carried out as follow: at day 1, 10^5 MNT-1 cells are seeded in 6-well plates; From day 2 to day 4, cells are grown in medium comprising 10 μM of peptides; at day 5, cells are disrupted by sonication in 50 mM Tris-HCl, pH 7.4, 2 mM EDTA, 150 mM NaCl, 1 mM dithiothreitol, and protease inhibitors. Pigment is pelleted at 20,000 g for 15 min at 4° C., rinsed once in ethanol/ether (1:1), and dissolved in 2 M NaOH/20% dimethylsulfoxide at 60° C.; Melanin content is measured as optical density at 492 nm.
At day 1, 10^5 cells were seeded in 6-well plates. From day 2 to day 4, cells were grown in medium containing 1 or 10 μg of peptides. Medium was changed every day. […] Melanin content was measured as optical density at 492 nm.

[2] = test system: 3D human reconstructed pigmented epidermis; assay: Melanin assay on reconstructed human pigmented epidermis; type: cell-based; conditions: 10 days, 30 μM peptide, OD 492 nm, normalized to control
Protocol: FIG. 10: Melanin quantitation on 3D human reconstructed pigmented epidermis incubated 10 days with 30 μM of QA-3 peptides or AK-3 peptides. Synthetic epidermis were removed from their insert and dissolved in 400 μl of Solvable (Perkin Elmer) for 1 h at 100° C. Melanin quantification was performed on 200 μl by measuring the optical density at 492 nm. Melanin quantifications were normalized to the control. Both QA-3 and AK-3 peptides decreased about 22.5±13% or 21±10% the melanin production by synthetic skin epidermis. Data are presented as mean±standard deviation. *; p value (two tailed)<0.1.
Reconstructed human epidermal of phototype VI (Sterlab) were received at day 10 and incubated with the manufacturer's growth medium supplemented from day 11 to day 21 with 30 μg of peptides. As recommended, medium was changed every day. At day 21, the epidermis was separated from the insert, digested by incubation in 400 μl of Solvable (PerkinElmer) at 98° C. for 1 h. Melanin content was measured as optical density at 492 nm.

[3] = biological target: T1, AP-1/KIF13A interaction (Homo sapiens, UniProt Q9H1H9); assay: AP-1 immunoprecipitation / KIF13A western blot, MNT-1 melanocyte lysates incubated with peptides; type: biochemical; conditions: MNT-1 melanocytic cell lysates, 1 μg peptide, KIF13A/AP-1 band intensity normalized to control
T1 construct: endogenous in cells; host or cells: MNT-1 (MNT1) human melanocytic cells
Protocol: FIG. 2: γ-adaptin subunit of the human AP-1 complex was immunoprecipitated from melanocytes (MNT1) cell lysates in presence or not of 1 μg of the indicated peptides (peptides SS-5, EK-11 and QK-5: SEQ ID NO: 28, 1 and 16, respectively) for 2 h at 4° C. under rotation. […] EK-11 and SS-5 peptides were used as a positive and negative controls, respectively. Molecular weight in kDa.
FIG. 3: Intensity of the immunoprecipitated KIF13A and AP-1 bands shown in FIG. 2 were quantified using ImageJ. KIF13A intensity were divided by its corresponding AP-1 intensity and normalized to the control (lysates incubated without peptides, first lane).
Cells at 80% of confluency were washed in cold PBS and lysed on ice in lysis buffer (50 mM Tris, 150 mM NaCl, 0.1% Triton X-100, 10 mM EDTA, pH 7.2, and protease inhibitor cocktail, Roche). Lysates were incubated overnight with 1 μg of peptides. Lysates were first precleared using protein G agarose beads for 1 h at 4° C. under rotation. Supernatants were collected and incubated with protein G agarose beads with 1 μg mouse monoclonal IgG2b anti-CD9 for 1 h at 4° C. under rotation. Precleared supernatants were incubated with beads coated earlier with 1 μg mouse monoclonal IgG2b anti-γ-adaptin for 2 h at 4° C. under rotation. As negative control, 1 μg mouse monoclonal IgG2b anti-CD9 was used to immunoprecipitate the lysate. […]

[4] = biological target: T2, interaction of human AP-1 with human KIF13A (Homo sapiens, UniProt Q9H1H9); assay: AP-1 immunoprecipitation / KIF13A western blot, HeLa cell lysates incubated with peptides; type: biochemical; conditions: 1 μg peptide, vs control without peptide
T2 construct: incubating independently g of each 12 peptides with HeLa cell lysates (non pigmented cells); endogenous in cells; host or cells: HeLa cell lysate
Protocol: FIG. 1: γ-adaptin subunit of the human AP-1 complex was immunoprecipitated from HeLa cell lysates in presence or not of 1 μg of the indicated 11 amino acids peptides (peptides AI, QT, GN, EK, EL, WQ; NY, QF, LM, FF, LK and RI: SEQ ID NO: 17, 28, 20, 1, 25, 27, 22, 21, 24, 23, 19 and 26, respectively) for 2 h at 4° C. under rotation. […] Molecular weight in kDa.
Cells at 80% of confluency were washed in cold PBS and lysed on ice in lysis buffer (50 mM Tris, 150 mM NaCl, 0.1% Triton X-100, 10 mM EDTA, pH 7.2, and protease inhibitor cocktail, Roche). Lysates were incubated overnight with 1 μg of peptides. Lysates were first precleared using protein G agarose beads for 1 h at 4° C. under rotation. Supernatants were collected and incubated with protein G agarose beads with 1 μg mouse monoclonal IgG2b anti-CD9 for 1 h at 4° C. under rotation. Precleared supernatants were incubated with beads coated earlier with 1 μg mouse monoclonal IgG2b anti-γ-adaptin for 2 h at 4° C. under rotation. As negative control, 1 μg mouse monoclonal IgG2b anti-CD9 was used to immunoprecipitate the lysate.
After five washes in cold lysis buffer and three washes in PBS, immunoprecipitated proteins bound to the beads were incubated in sample buffer with reducing agent, boiled for 10 min at 95° C., and fractionated by SDS-PAGE using Nupage (3-8%) Tris-acetate gels (Invitrogen). […]

[5] = biological target: T3, co-localization of KIF13A with AP-1 (Homo sapiens, UniProt Q9H1H9); assay: Immunofluorescence colocalization of AP-1 with KIF13A in MNT-1 melanocytes; type: cell-based; conditions: MNT1 melanocytes, 3 days, 10 μM peptide, vs H2O control
T3 construct: endogenous in cells; host or cells: MNT-1 (MNT1) human melanocytic cells
Protocol: FIG. 5: MNT1 melanocytes were seeded on glass coverslips and cultured 3 days with 10 μM of QK-5 peptide (SEQ ID NO: 16) or H2O as a control. Cells were fixed in cold methanol and co-stained using a rabbit anti-human KIF13A and a mouse anti-human γ-adaptin as primary antibodies and goat anti-rabbit or mouse coupled to Alexa-488 or 546 (Molecular Probes). Coverslips were mounted in Dabco (Invitrogen) medium and images were acquired on an Eclipse 80i Upright Microscope (Nikon) and deconvoluted. Images are maximum-intensity z projections of up to 15 3D image stacks acquired using ImageJ software. Analysis was performed by quantifying the intensity of overlapping KIF13A and AP-1 pixels and by normalizing them to the control. QK-5 peptide incubation on melanocytes decreased about 84±7% the co-localization of KIF13A with AP-1. Data are presented as mean±standard deviation. ***; p value (two tailed)<0.001.
MNT-1 cells grown on coverslips were incubated for three days in medium containing 10 μg of peptides. Coverslips were rinsed in PBS, fixed in 100% cold methanol for 30 sec, followed by incubation in PBS and 1 mg/ml BSA. […]
Colocalization analysis was performed using ImageJ software. […] Then identical area inside cells were defined and analyzed for quantification.

[6] = test system: MNT-1 cells; assay: Electron microscopy, grading of melanosome stages in MNT-1 cells; type: cell-based, human; conditions: MNT1 melanocytes, 3 days, 10 μM peptide, vs H2O control
Protocol: FIG. 6: MNT1 melanocytes were seeded on glass coverslips and cultured 3 days with 10 μM of QK-5 peptide (SEQ ID NO: 16; bottom panel) or H2O (top panel) as a control. Then cells were rapidly washed in DMEM at room temperature and fixed for 90 min with a mixture of 2.5% glutaraldehyde in 0.1 M cacodylate buffer for 90 min at 4° C., post-fixed with 1% OsO4/1.5% potassium ferrocyanide 45 min at 4° C., dehydrated in ethanol and embedded in Epon resin. Ultrathin (60-70 nm) sections were observed under a CM120 electron microscope (FEI company, Eindoven), equipped with a KeenView camera (Soft Imaging System; SIS, Germany). […] Scale bar: 2 μm.
FIG. 7: Melanosome stages were quantified based on their morphologies on MNT1 melanocytes treated as in FIG. 6. Stages I and II correspond to early non-pigmented melanosomes, melanin pigmentation is initiated in stage III, whereas stage IV is a fully mature and pigmented melanosome. Stages were counted and plotted as percentage of their total number.
Control and peptide-treated MNT-1 cells grown on coverslips for 3 days were fixed with 2.5% glutaraldehyde in 0.1M cacodylate buffer, pH 7.2 post-fixed with 1% OsO4 supplemented with 1.5% Potassium ferrocyanure, dehydrated in ethanol, and embedded in epon. Ultrathin sections were prepared with an Ulltracut UCT ultramicrotome (Leica) and observed under a CM120 electron microscope (FEI company, Eindoven) after counter-staining with uranyl acetate and lead citrate.
Grading of melanosomes stages from I to IV, based on morphology and melanin content, were done independently by two authors. The table below presents the criteria of analyses.

T1 sequence (Q9H1H9 whole entry): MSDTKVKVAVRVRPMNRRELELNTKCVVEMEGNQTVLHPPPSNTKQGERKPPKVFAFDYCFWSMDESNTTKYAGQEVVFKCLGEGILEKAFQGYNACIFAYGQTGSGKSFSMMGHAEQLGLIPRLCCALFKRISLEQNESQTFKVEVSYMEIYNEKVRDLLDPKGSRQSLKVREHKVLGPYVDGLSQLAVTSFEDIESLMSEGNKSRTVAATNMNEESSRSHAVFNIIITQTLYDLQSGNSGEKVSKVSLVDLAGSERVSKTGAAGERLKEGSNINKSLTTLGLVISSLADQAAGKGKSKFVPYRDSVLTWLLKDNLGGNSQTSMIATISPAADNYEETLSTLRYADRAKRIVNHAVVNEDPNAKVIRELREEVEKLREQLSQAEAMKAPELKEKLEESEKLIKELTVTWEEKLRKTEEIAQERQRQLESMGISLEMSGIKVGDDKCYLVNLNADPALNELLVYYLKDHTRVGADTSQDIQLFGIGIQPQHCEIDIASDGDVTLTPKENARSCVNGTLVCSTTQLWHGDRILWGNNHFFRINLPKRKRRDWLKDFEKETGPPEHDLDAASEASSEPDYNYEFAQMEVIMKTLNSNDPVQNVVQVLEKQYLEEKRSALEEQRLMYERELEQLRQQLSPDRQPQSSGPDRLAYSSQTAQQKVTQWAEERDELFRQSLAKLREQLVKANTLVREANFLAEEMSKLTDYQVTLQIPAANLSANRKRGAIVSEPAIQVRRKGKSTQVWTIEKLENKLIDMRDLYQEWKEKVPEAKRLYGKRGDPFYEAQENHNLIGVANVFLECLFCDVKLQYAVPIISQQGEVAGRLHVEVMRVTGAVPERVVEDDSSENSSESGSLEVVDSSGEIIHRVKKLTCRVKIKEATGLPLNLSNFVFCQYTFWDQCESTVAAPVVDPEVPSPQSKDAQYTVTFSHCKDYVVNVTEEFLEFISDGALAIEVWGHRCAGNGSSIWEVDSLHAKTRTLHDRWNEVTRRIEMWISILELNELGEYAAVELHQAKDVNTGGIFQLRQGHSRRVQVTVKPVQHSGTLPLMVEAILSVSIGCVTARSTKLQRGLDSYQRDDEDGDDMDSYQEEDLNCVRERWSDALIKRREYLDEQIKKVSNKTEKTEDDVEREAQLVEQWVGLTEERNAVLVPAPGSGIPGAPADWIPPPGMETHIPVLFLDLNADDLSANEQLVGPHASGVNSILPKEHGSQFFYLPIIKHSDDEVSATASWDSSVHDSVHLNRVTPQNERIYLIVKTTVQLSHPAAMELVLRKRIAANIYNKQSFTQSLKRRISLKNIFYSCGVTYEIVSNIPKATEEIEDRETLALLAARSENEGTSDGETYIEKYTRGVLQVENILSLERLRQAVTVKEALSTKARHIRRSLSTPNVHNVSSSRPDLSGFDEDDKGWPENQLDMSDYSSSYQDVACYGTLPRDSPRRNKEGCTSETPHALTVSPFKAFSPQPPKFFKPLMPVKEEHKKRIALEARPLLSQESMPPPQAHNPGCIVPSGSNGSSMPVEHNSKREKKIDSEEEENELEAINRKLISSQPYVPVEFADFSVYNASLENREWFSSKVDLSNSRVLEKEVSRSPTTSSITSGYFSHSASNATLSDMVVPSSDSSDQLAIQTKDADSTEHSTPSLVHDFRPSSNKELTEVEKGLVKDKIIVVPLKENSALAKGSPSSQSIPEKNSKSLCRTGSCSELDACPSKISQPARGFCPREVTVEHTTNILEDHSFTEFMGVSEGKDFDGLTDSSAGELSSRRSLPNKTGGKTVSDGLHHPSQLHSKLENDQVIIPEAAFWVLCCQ
T3 sequence (Q9H1H9 whole entry): as above
T2 sequence (Q9H1H9 whole entry): as above

| decrease of the AP-1/KIF13A interaction [3] [%] | decrease of the interaction of AP-1 with KIF13A [4] | decrease of the colocalization of KIF13A with AP-1 [5] | Substance | decrease of the intracellular melanin content [1] | decrease of melanin production / pigmentation of reconstructed epidermis [2] [%] | early melanosome Stages (I and II) [6] | number of Stage III melanosomes [6] | number of Stage IV (fully mature pigmented) melanosomes [6] |
| --- | --- | --- | --- | --- | --- | --- | --- | --- |
| – | – | – | AVK [AK-3] | 22±8% and ~21.3±8% | 21±10 | – | – | – |
| 57.5±8 | about 52.6±7% | – | EPLNNLQVAVK (listed as Homo sapiens) [EK-11] | – | – | – | – | – |
| 56.1±6 | – | about 84±7% | QVAVK (listed as Homo sapiens) [QK-5] | – | – | without affecting the early Stages (I and II) | increased their number of Stage III; also recorded: increased the number of less mature and pigmented stages III | decreased their number of Stage IV melanosomes; also recorded: fewer dark-pigmented granules; also recorded: decreased the number of stage IV melanosomes |
